Results from EP4741386A1 (Jiangsu Yahong Meditech Co., Ltd., priority 2023, dated 2025).

target: T1, Recombinant human His6-USP1/His6-UAF1 complex protein (Homo sapiens, UniProt O94782); assay: In vitro inhibitory activity against USP1 (Ubiquitin Rhodamine 110 fluorescence detection, 384-well plate); assay type: biochemical; settings: Ub-Rho substrate, 1 hour pre-incubation, read after 30 minutes
T1 construct: His6; purchased R&D E-568-050
Experimental: Test Example 1: In vitro inhibitory activity against USP1 […]
Experimental object: to screen compounds with inhibitory activity against USP1 […] by a fluorescence detection method, using a 384-well plate.
Experimental materials: Recombinant human His6-USP1/His6-UAF1 complex protein (R&D, Cat. No.: E-568-050), Ubiquitin Rhodamine 110 protein (Ub-Rho) (R&D, Cat. No.: U-555-050), 384-well plate (Perkin Elmer, Cat. No.: 6007279); all compounds were dissolved in 100% DMSO to obtain 50 mM stock solutions.
• 1) Preparation of 1 × assay buffer: 1 × assay buffer (modified Tris buffer) was prepared; • 2) Dilution of compounds: the compounds were transferred to an assay plate via Echo.

T1 sequence (O94782 whole entry): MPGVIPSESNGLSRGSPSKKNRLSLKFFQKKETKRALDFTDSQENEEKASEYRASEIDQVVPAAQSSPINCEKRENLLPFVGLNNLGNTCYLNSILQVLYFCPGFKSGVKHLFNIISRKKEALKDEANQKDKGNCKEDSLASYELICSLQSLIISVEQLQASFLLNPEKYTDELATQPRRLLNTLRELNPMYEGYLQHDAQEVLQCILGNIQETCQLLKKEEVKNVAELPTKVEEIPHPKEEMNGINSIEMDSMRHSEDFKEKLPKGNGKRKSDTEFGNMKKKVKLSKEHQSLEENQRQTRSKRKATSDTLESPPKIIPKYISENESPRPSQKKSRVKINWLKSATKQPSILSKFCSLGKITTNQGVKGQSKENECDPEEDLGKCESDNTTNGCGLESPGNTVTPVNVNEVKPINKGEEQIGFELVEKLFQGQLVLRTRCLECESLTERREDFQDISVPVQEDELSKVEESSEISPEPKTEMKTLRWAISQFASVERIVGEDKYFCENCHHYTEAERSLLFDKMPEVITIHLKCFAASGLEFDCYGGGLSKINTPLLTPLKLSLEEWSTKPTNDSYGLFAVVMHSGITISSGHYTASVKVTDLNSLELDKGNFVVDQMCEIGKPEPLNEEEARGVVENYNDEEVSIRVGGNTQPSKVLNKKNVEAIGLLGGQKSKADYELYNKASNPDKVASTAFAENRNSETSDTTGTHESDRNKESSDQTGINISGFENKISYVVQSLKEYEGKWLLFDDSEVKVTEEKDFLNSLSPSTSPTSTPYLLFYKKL
T1 sequence (Q8TAF3 whole entry partner): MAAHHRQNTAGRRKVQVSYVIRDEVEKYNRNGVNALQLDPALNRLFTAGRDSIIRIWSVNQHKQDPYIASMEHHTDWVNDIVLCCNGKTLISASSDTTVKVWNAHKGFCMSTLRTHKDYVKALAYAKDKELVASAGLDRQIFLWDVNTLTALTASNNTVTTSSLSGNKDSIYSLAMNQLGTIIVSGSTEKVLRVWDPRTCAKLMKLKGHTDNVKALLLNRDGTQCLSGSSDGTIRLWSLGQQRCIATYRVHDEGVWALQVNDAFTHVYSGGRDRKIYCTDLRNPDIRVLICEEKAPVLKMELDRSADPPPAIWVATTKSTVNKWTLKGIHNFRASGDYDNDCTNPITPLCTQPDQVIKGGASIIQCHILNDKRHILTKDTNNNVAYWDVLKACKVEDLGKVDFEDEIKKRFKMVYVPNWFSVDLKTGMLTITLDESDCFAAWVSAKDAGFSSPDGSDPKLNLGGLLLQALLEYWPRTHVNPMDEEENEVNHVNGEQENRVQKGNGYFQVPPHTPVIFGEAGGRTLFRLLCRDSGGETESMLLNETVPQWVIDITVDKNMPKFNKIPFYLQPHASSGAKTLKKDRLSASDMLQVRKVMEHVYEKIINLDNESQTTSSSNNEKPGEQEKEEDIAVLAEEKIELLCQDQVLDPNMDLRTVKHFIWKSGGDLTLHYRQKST

| SMILES | IC50 [nM] |
| --- | --- |
| COc1cnc(-c2ccccc2C(C)C)nc1NCc1ccc(OCc2ccccn2)cc1 [Example 67, 2-(2-Isopropylphenyl)-5-methoxy-N-(4-(pyridin-2-ylmethoxy)benzyl)pyrimidin-4-amine] | 5.3 |
| COc1cnc(-c2c(OC)ncnc2C2CC2)nc1NCc1ccc2c(c1)CCN(C(C)C)C2=O [Example 97, 6-(((4'-Cyclopropyl-5,6'-dimethoxy-[2,5'-bipyrimidin]-4-yl)amino)methyl)-2-isopropyl-3,4-dihydroisoquinolin-1(2H)-one] | 263 |
| CC(C)c1ccccc1-c1ncc(C(F)(F)F)c(NCC2CCN(c3ccccn3)CC2)n1 [Example 76, 2-(2-Isopropylphenyl)-N-((1-(pyridin-2-yl)piperidin-4-yl)methyl)-5-(trifluoromethyl)pyrimidin-4-amine] | 30.1 |
| CCOCCOc1ccc(CNc2nc(-c3ccccc3C(C)C)nc3ccoc23)cc1 [Example 79, N-(4-(2-Ethoxyethoxy)benzyl)-2-(2-isopropylphenyl)furo[3,2-d]pyrimidin-4-amine] | 4.5 |
| CC(C)c1ccccc1-c1ncc(C(F)(F)F)c(NCC2CCN(c3nc(C(F)(F)F)cn3C)CC2)n1 [Example 25, 2-(2-Isopropylphenyl)-N-((1-(1-methyl-4-(trifluoromethyl)-1H-imidazol-2-yl)piperidin-4-yl)methyl)-5-(trifluoromethyl)pyrimidin-4-amine] | 3.7 |
| CC(C)Oc1cnc(-c2ccccc2C(C)C)nc1NCC12CCC(c3ccc(C(F)(F)F)cn3)(CC1)CC2 [Example 74, 5-Isopropoxy-2-(2-isopropylphenyl)-N-((4-(5-(trifluoromethyl)pyridin-2-yl)bicyclo[2.2.2]octan-1-yl)methyl)pyrimidin-4-amine] | 873 |
| CC(C)c1ccccc1-c1ncc2c(n1)N(C[C@H]1CC[C@@H](c3nc(C(F)(F)F)cn3C)CC1)CCO2 [Example 14, 2-(2-Isopropylphenyl)-8-(((1s,4s)-4-(1-methyl-4-(trifluoromethyl)-1H-imidazol-2-yl)cyclohexyl)methyl)-7,8-dihydro-6H-pyrimido[5,4-b][1,4] oxazine] | 60 |
| COc1ncnc(C2CC2)c1-c1ncc2c(n1)N(Cc1ccc(-c3ccccn3)cc1)CCO2 [Example 9, 2-(4-Cyclopropyl-6-methoxypyrimidin-5-yl)-8-(4-(pyridin-2-yl)benzyl)-7,8-dihydro-6H-pyrimido[5,4-b][1,4]oxazine] | 35 |
| CC(C)c1ccccc1-c1ncc2c(n1)N(CC1CCC(c3nc(C(F)(F)F)cn3C)CC1)CCO2 [Example 13, 2-(2-Isopropylphenyl)-8-(((1R,4R)-4-(1-methyl-4-(trifluoromethyl)-1H-imidazol-2-yl)cyclohexyl)methyl)-7,8-dihydro-6H-pyrimido [5,4-b][1,4] oxazine] | 1.9 |
| CC(C)c1ccccc1-c1ncc(C(F)(F)F)c(NCc2ccc(-c3ccccn3)cc2)n1 [Example 16, 2-(2-Isopropylphenyl)-N-(4-(pyridin-2-yl)benzyl)-5-(trifluoromethyl)pyrimidin-4-amine] | 30.6 |
| CC(C)c1ccccc1-c1ncc(N2CCOCC2)c(NCc2ccc(-c3nc(C(F)(F)F)cn3C)cc2)n1 [Example 87, 2-(2-Isopropylphenyl)-N-(4-(1-methyl-4-(trifluoromethyl)-1H-imidazol-2-yl)benzyl)-5-morpholinopyrimidin-4-amine] | 6.2 |
| CC(C)c1ccccc1-c1nc(NCc2ccc3c(c2)CCN(C(C)C)C3=O)c2occc2n1 [Example 78, 2-Isopropyl-6-(((2-(2-isopropylphenyl)furo[3,2-d]pyrimidin-4-yl)amino)methyl)-3,4-dihydroisoquinolin-1(2H)-one] | 6.4 |
| COC1CC(Oc2ccc(CNc3nc(-c4ccccc4C(C)C)nc4ccoc34)cc2)C1 (centres unmarked) [Example 80, 2-(2-Isopropylphenyl)-N-(4-(3-methoxycyclobutoxy)benzyl)furo[3,2-d]pyrimidin-4-amine] | 26 |
| COc1ncnc(C2CC2)c1-c1ncc2c(n1)N(CC1CCN(c3nc(C(F)(F)F)cn3C)CC1)C(=O)CO2 [Example 30, 2-(4-Cyclopropyl-6-methoxypyrimidin-5-yl)-8-((1-(1-methyl-4-(trifluoromethyl)-1H-imidazol-2-yl)piperidin-4-yl)methyl)-6H-pyrimido[5,4-b][1,4]oxazin-7(8H)-one] | 37 |
| COc1cnc(-c2c(OC)ncnc2C2CC2)nc1NCc1ccc(-c2nc(C(F)(F)F)cn2C)cc1 [Example 29, 4'-Cyclopropyl-5,6'-dimethoxy-N-(4-(1-methyl-4-(trifluoromethyl)-1H-imidazol-2-yl)benzyl)-[2,5'-bipyrimidin]-4-amine] | 4.8 |

Other lines, results leading:

| IC50 [nM] | SMILES |
| --- | --- |
| 19 | COc1cnc(-c2c(OC)ncnc2C2CC2)nc1N(C)CC12CCC(c3nc(C(F)(F)F)cn3C)(CC1)OC2 [Example S10, 4'-Cyclopropyl-5,6'-dimethoxy-N-methyl-N-((1-(1-methyl-4-(trifluoromethyl)-1H-imidazol-2-yl)-2-oxabicyclo[2.2.2]oct-4-yl)methyl)-[2,5'-bipyrimidin]-4-amine] |
| 220 | COc1cnc(-c2c(OC)ncnc2C2(F)CC2)nc1NCC1CCC(c2nc(C(F)(F)F)cn2C2CC2)CC1 [Example S38, N-(((1R,4R)-4-(1-cyclopropyl-4-(trifluoromethyl)-1H-imidazol-2-yl)cyclohexyl)methyl)-4'-(1-fluorocyclopropyl)-5,6'-dimethoxy-[2,5'-bipyrimidin]-4-amine] |
| 15 | COc1cnc(-c2c(C)noc2C(C)C)nc1NCc1ccc(-c2nc(C(F)(F)F)cn2C)cc1 [Example 188, 2-(5-Isopropyl-3-methylisoxazol-4-yl)-5-methoxy-N-(4-(1-methyl-4-(trifluoromethyl)-1H-imidazol-2-vl)benzyl)pyrimidin-4-amine] |
| 6.1 | COc1cnc(-c2c(Cl)cnn2C(C)C)nc1NCC12CCC(c3nc(C(F)(F)F)cn3C3CCC3)(CC1)OC2 [Example S11, 2-(4-Chloro-1-isopropyl-1H-pyrazol-5-yl)-N-((1-(1-cyclobutyl-4-(trifluoromethyl)-1H-imidazol-2-yl)-2-oxabicyclo[2.2.2]oct-4-yl)methyl)-5-methoxypyrimidin-4-amine] |
| 431 | Cc1ncn(C(C)C)c1-c1nc(NCC23CCC(c4ccc(C(F)(F)F)cn4)(CC2)CC3)c2occc2n1 [Example 150, 2-(1-Isopropyl-4-methyl-1H-imidazol-5-yl)-N-((4-(5-(trifluoromethyl)pyridin-2-yl)bicyclo[2.2.2]octan-1-yl)methyl)furo[3,2-d]pyrimidin-4-amine] |
| 3.5 | COc1cnc(-c2c(OC)ncnc2C2CC2)nc1N(C#N)Cc1ccc(-c2nc(C(F)(F)F)cn2C)cc1 [Example 206, N-(4'-cyclopropyl-5,6'-dimethoxy-[2,5'-bipyrimidin]-4-yl)-N-(4-(1-methyl-4-(trifluoromethyl)-1H-imidazol-2-yl)benzyl)cyanamide] |
| 6.1 | COc1cnc(-c2c(Cl)cnn2C(C)C)nc1N(C)CC12CCC(c3nc(C(F)(F)F)cn3C)(CC1)OC2 [Example 211, 2-(4-chloro-1-isopropyl-1H-pyrazol-5-yl)-5-methoxy-N-methyl-N-((1-(1-methyl-4-(trifluoromethyl)-1H-imidazol-2-yl)-2-oxabicyclo [2.2.2]octan-4-yl)methyl)pyrimidin-4-amine] |
| 66 | COc1cnc(-c2c(C)noc2C(C)C)nc1N(C)CC1CCN(c2ccccn2)CC1 [Example 186, 2-(5-Isopropyl-3-methylisoxazol-4-yl)-5-methoxy-N-methyl-N-((1-(pyridin-2-yl)piperidin-4-yl)methyl)pyrimidin-4-amine] |
| 68.6 | COc1cnc(-c2cccc3ccn(C)c23)nc1NCc1ccc(-n2nc(C(F)(F)F)cc2C)cc1 [Example 144, 5-Methoxy-2-(1-methyl-1H-indol-7-yl)-N-(4-(5-methyl-3-(trifluoromethyl)-1H-pyrazol-1-yl)benzyl)pyrimidin-4-amine] |
| 73 | COc1cnc(-c2c(OC)ncnc2C2CC2)nc1N(Cc1ccc(-c2nc(C(F)(F)F)cn2C)cc1)C1CCOC1 (centres unmarked) [Example 140, 4'-Cyclopropyl-5,6'-dimethoxy-N-(4-(1-methyl-4-(trifluoromethyl)-1H-imidazol-2-yl)benzyl)-N-(tetrahydrofuran-3-yl)-[2,5'-bipyrimidin]-4-amine] |
| 648 | COc1ncnc(C2CC2)c1-c1nc(NCc2ccc3c(c2)CCN(C)C3=O)c2occc2n1 [Example 114, 6-(((2-(4-Cyclopropyl-6-methoxypyrimidin-5-yl)furo[3,2-d]pyrimidin-4-yl)amino)methyl)-2-methyl-3,4-dihydroisoquinolin-1(2H)-one] |
| 43 | COc1cnc(-c2c(C)cnn2C2CC2)nc1N(O)Cc1ccc(-c2nc(C(F)(F)F)cn2C)cc1 [Example 205, N-(2-(1-cyclopropyl-4-methyl-1H-pyrazol-5-yl)-5-methoxypyrimidin-4-yl)-N-(4-(1-methyl-4-(trifluoromethyl)-1H-imidazol-2-yl)benzyl)hydroxylamine] |
| 23.5 | COc1cnc(-c2c(C)noc2C(C)C)nc1NCC1CCN(c2nc(C(F)(F)F)cn2C)CC1 [Example 187, 2-(5-Isopropyl-3-methylisoxazol-4-yl)-5-methoxy-N-((1-(1-methyl-4-(trifluoromethyl)-1H-imidazol-2-yl)piperidin-4-yl)methyl)pyrimidin-4-amine] |
| 164 | COc1cnc(-c2c(OC)cnn2C2CC2)nc1NCc1ccc(-c2ccccn2)cc1 [Example 183, 2-(1-Cyclopropyl-4-methoxy-1H-pyrazol-5-yl)-5-methoxy-N-(4-(pyridin-2-yl)benzyl)pyrimidin-4-amine] |
